Data as given in patent US9320760B2, “Compositions and methods of use of compounds to increase cancer patient survival time” (BioNumerik Pharmaceuticals, Inc., priority 2008, dated 2016).
Values joined by “and” are separate entries in the source; they are usually repeats but may differ in a detail not shown here. Equal entries are not always repeated.

Assays:
[1] = molecular target: T1, GST (m1-1 isotype of GST) (Homo sapiens, UniProt P09488); assay: GST assay: conjugation of reduced glutathione to 1-chloro-2,4-dinitrobenzene (CDNB), 340 nm; format: biochemical; conditions: for Slope Abs/min: individual assay run, 1 mM GSH, slope 8.9 to 13.1 min, 20° C.; for Slope Mean: mean of three runs (0 mM control 0.0449); for Relative Activity: normalized to reactions with no Tavocept
T1 construct: purchased
T1 sequence (P09488 1-218): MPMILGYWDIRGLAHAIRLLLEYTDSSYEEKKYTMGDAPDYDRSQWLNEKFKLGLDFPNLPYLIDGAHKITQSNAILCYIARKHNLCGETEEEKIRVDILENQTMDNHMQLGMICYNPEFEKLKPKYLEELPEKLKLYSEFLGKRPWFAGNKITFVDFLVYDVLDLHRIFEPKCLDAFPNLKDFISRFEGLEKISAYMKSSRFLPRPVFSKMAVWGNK
Protocol: An in vitro assay for GST has been developed and reported. See, Meyer, D. J. and Ketterer, B., Purification of soluble human glutathione S-transferases. Methods Enzymol. 252:53-65 (1995). This assay monitors the conjugation of reduced glutathione to 1-chloro-2,4-dinitrobenzene (CDNB), as illustrated in Reaction Scheme II, below.
Reduced thiol forms a conjugate with CDNB (extinction coefficient=9600 M^−1 cm^−1), which is detected at 340 nm. […] A typical 1 mL assay was set up by mixing 500 μL NaHPO4 buffer (200 mM, pH 6.5), 20 μL GSH (50 mM), 20 μL CDNB (50 mM), and 458 μL sterile water. Reactions were incubated at 20° C. in the cuvette holder of the spectrophotometer for approximately 5 min. prior to initiating the assay with the addition of enzyme (m1-1 isotype of GST; activity >100 U/mg). The enzyme stock purchased from the vendor was diluted 1:100 in 200 mM NaHPO4 buffer (pH 6.5), and 2 μL of the diluted enzyme was added to initiate the reaction. The final amount of enzyme added to the assay was typically 0.002 U. Assays were run at 20° C. in 1 mL quartz cuvettes (Hellma Scientific). Slopes were measured in the linear range of the assay (i.e., typically between 5 to 10 min.). […] Final reaction volumes were fixed at 1 mL by adjusting the amount of water added.
All UV-visible assays were performed using a Varian Cary 100 spectrophotometer equipped with a thermostatic jacketed multi-cell holder. The default parameters of the Cary Win UV Enzyme Kinetics application (version 2.00) were used; with the exceptions of using both the visible and deuterium lamps, and setting the wavelength to 340 nm, the temperature to 20° C., and the maximal duration of the assay at 30 minutes.
Raw data was obtained on a Cary 100 spectrophotometer. […] The first phase was a baseline corresponding to the time prior to addition of enzyme (typically 2-5 min. in duration). Assays in the first phase of the reaction contained only substrate, buffer and (in some assays) Tavocept™. The spectrophotometer was put in pause mode while enzyme (GST) was added and mixed into the assay reactions. No absorbance values were collected during the process of enzyme addition. The region of experimental interest was during the linear phase of the enzyme reaction, which immediately followed the addition of enzyme. The linear phase is of experimental interest because it is when the classical model of Michaelis-Menton kinetics holds true. During this phase the substrate concentration is high (>Km for enzyme) and, therefore, the rate of catalysis is independent of the substrate concentration. It was during this time that reaction rates (i.e., slopes of change in absorbance with time) were measured using the Cary 100 software. The duration of the linear phase was between 5-10 minutes, depending upon the specific reaction conditions. Reactions were considered complete when substrate concentration was no longer saturating and became a rate limiting factor of the assay. When the substrate was limiting, the reaction rate deviated from linearity. This end phase of the reaction was typically observed after 10 to 15 minutes. Absorbance and time values during the end phase of the reaction were not used in slope calculations because the reaction was effectively over at this point as the reaction no longer followed the classical Michaelis-Menton model for enzyme kinetics. Completion of the reaction on the Cary software could be detected visually by overlaying a straight line beginning at the addition of enzyme and extending past the end phase of the assay curve. Upon completion of a set of reactions data was stored as an electronic “batch” file. Sigma Plot was used specifically to show the mean of assays run in triplicate with linear regression lines and error bars illustrating standard deviation. Descriptive statistics (mean and standard deviation) were used to describe and summarize the results of the experiments. The results of these experiments are illustrated in FIG. 16. […]

[2] = molecular target: T2, glutathione reductase (GR) (Homo sapiens, UniProt P00390); assay: NADPH oxidation, glutathione reductase (GR) alone; format: biochemical
T2 sequence (P00390 44-522): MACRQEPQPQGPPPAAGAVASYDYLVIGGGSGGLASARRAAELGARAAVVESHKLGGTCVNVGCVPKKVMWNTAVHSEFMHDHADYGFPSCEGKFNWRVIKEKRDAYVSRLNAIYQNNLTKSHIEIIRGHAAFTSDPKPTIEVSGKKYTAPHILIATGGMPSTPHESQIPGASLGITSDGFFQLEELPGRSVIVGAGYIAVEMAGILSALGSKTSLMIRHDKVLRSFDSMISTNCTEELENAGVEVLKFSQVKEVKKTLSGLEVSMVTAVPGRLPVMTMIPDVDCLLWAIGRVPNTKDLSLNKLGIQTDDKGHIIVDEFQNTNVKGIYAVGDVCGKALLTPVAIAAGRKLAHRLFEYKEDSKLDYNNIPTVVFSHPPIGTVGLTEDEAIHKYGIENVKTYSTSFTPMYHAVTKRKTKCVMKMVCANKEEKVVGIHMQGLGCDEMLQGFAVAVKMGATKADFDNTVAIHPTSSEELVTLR
Protocol: (§1) The Formula (I) compound was utilized at a concentration of 0.5 mM.

GR + GSH = molecular target: T3, GR + GSH (Homo sapiens, UniProt P00390); assay: NADPH oxidation, GR + GSH; format: biochemical; conditions: Disulfide 0.5 mM; n = 6
T3 sequence (P00390 44-522): T2 sequence (P00390 44-522)
Protocol: as §1

human cancer cell lines = assay: interference with paclitaxel and platinum induced cytotoxicity; format: cell-based
Source text: An important element of Tavocept's™ effectiveness as a compound in the treatment of cancer is its selectivity for normal cells versus cancer cells and its inability to interfere with the anti-cancer activity of chemotherapeutic agents.

O=S(=O)([O-])CCSSCCS(=O)(=O)[O-].[Na+].[Na+] [Tavocept™, disodium 2,2′-dithio-bis-ethane sulfonate]
Slope Abs/min ([1]; Tavocept 1.1 mM): 0.0437 Abs/min and 0.0407 Abs/min and 0.0427 Abs/min | Slope Mean ([1]; Tavocept 1.1 mM): 0.0424 Abs/min | Relative Activity ([1]; Tavocept 1.1 mM): 94.4% | Slope Abs/min ([1]; Tavocept 3.3 mM): 0.0295 Abs/min and 0.0242 Abs/min and 0.0284 Abs/min | Slope Mean ([1]; Tavocept 3.3 mM): 0.0274 Abs/min | Relative Activity ([1]; Tavocept 3.3 mM): 61% | Slope Abs/min ([1]; Tavocept 10 mM): 0.0155 Abs/min and 0.0158 Abs/min and 0.0139 Abs/min | Slope Mean ([1]; Tavocept 10 mM): 0.0151 Abs/min | Relative Activity ([1]; Tavocept 10 mM): 33.6% | increase in GST inhibition ([1]; Tavocept raised from 1.1 mM to 3.3 mM): ~6 times | NADPH Oxidation, GR ([2]; Disulfide 0.5 mM, n = 6): 0.0 ± 0.01 nmol/min/mL | substrate / alternative substrate inhibitor for glutathione reductase ([2]; result in words): not a substrate | NADPH Oxidation, GR + GSH (GR + GSH): 2.9 ± 1.6 nmol/min/mL | interference with paclitaxel and platinum induced cytotoxicity (human cancer cell lines): did not interfere
